Reference: patent publication US20230279024A1, “TRIAZINE COMPOUND AND COMPOSITION AND USE THEREOF” (BEIJING FINDCURE BIOSCIENCES, LTD., priority 2020, published 2023)

Experiments:
Ba/F3 AXL cells = assay: Cell activity test: growth inhibition of Ba/F3 AXL cell line (CTG, 72 h); type: cell-based; details: Mus musculus, BaF3
Method: This experiment was conducted by detecting the inhibitory effect of compounds on the growth of Ba/F3 AXL cell line and Ba/F3 parental cell line. Cells in logarithmic growth stage were harvested and counted by platelet counter. Trypan blue rejection method was used to detect cell viability to ensure that the cell viability was above 90%. Adjust cell concentration; 90 μL cell suspension was added to 96-well plates, respectively; Cells in 96-well plates were cultured overnight at 37° C., 5% CO2 and 95% humidity. A 10-fold drug solution was prepared, with the highest concentration of 10 μM, and a total of 9 concentrations were diluted at 3.16 times the ratio. 10 μL drug solution was added to each well of the 96-well plate inoculated with cells, and three wells were set for each drug concentration; 96-well plates were incubated at 37° C., 5% CO2 and 95% humidity for 72 h, and CTG analysis was performed. Thaw the CTG reagent and balance the cell plates to room temperature for 30 minutes. Add the same volume of CTG solution to each well and vibrate on a fixed-rail shaker for 5 minutes to crack the cells. Place the cell plates at room temperature for 20 minutes to stabilize the cold light signal and read the cold light value. The GraphPad Prism 5.0 software was used to analyze the data, and the nonlinear S-curve regression was used to fit the data to obtain the dose-effect curve, and the IC50 value was calculated accordingly. Cell survival rate (%)=(Lum drug to be tested −Lum culture medium control)/(Lum cell control−Lum culture medium control)×100%.

CYP3A4 [1] = target: T1, CYP3A4 (Homo sapiens (Human), UniProt P08684); details: hepatocytes, 2 days, 10 μM
Method: (§1) Cryopreservation of human primary hepatocytes was resuscitated in medium after take out from liquid nitrogen. […] Plates were incubated at 37° C. and 5% CO2 for 4-6 hours to confirm the formation of monolayer cells attached to the wall. Then the adherent culture medium was changed into hepatocyte culture medium and the culture was continued overnight.
After the test compound and positive control inducer were co-incubated with cells, the medium was removed and mercaptoethanol was added for cell lysis. Total RNA in cells was extracted with RNA extraction kit, and then transcribed into cDNA with cDNA reverse transcription kit. The 10 μL cDNA template was taken and analyzed on the fluorescence quantitative PCR instrument to obtain the Ct value.
The gene expression data were corrected by internal reference 18S, and the relative expression differences were determined by the method of ΔΔCt commonly used in fluorescence quantitative PCR.
The ΔCt, ΔΔCt and relative expression difference values of the target genes were calculated according to the following formula:
ΔCt=Ct value of target gene−Ct value of internal reference 18S
ΔΔCt=ΔCt of experimental group or positive control group−ΔCt of blank control group
Relative expression difference (fold of induction)=2−ΔΔ^Ct

CYP3A4 [2] = target: T1, CYP3A4; details: hepatocytes, 2 days, 10 μM; remark: listed apart in the source
Method: as §1
After the test compounds and positive control inducers were co-incubated with cells, the incubation medium was removed. […] After the samples were extracted and processed, the generation of metabolites and the kinase activities of CYP1A2, 2B6 and 3A4 was quantitatively detected by LC-MS/MS, respectively.
The induction of test substance on each subenzyme was determined by detecting the generation rate of metabolites of CYP450 subenzyme substrates. The relative activity of each subenzyme was expressed as a percentage of the relative blank control, and the data were calculated according to the following formula:
Fold of induction=sample subenzyme activity/blank subenzyme activity
Relative positive control activity (PC %)=(Fold of induction of sample group—Fold of induction of blank group)/(Fold of induction of positive control group—Fold of induction of blank group)×100

CYP3A4/5 = assay: Inhibition of human liver microsomes CYP450, 3A4/5; type: in vitro ADME; details: compounds 10 μM (positive control: concentration not given)
AXL (h) kinase = AXL (h) kinase (Homo sapiens (Human), UniProt P30530); assay: AXL (h) kinase activity test (EZ Reader mobility shift, FLPeptide30); type: biochemical; details: ATP 100 μM, AXL 1 nM
Method: The effect of the disclosed compounds as protein kinase inhibitors can be evaluated by the following experiments. The AXL (h) kinase activity of the compounds of the invention is tested by the following methods:
Reagents used in the experiment were AXL (Carna Bioscience, Cat No.: 08-107) and FLPeptide30 (PerkinElmer, Cat No.: 760430). The instruments involved were thermotank (Thermo Scientific), oscillator (QILINBEIER), EZ Reader (PerkinElmer, Cat No.: 122919), Non-contact stage pipetting system (Labcyte Inc., Cat No.: Echo 550), and non-contact nanoliter pipetting system (TECAN, Cat No.: EVO200).
Compound dilution: 1) Dissolve the compound in DMSO to the appropriate concentration; 2) Using TECAN EVO200 to dilute 10 concentrations in 384 microplates by three times gradient, the highest concentration is 1 mM; Echo550 was used to transfer 20 nL solution from the dilution plate to the test plate.
2) Add 15 μL solution 1 to each well of the test plate and incubate at room temperature for 30 minutes.
4) Add 5 μL solution 2 to start the reaction, and the final volume of each well is 20 μL.
5) Incubated at 25° C. for 90 min, and then added 75 μL stop solution (containing 0.5 M EDTA) to terminate the reaction.
6) The sample of each well was analyzed using EZ reader.
1) Based on the measured conversion rate (CR), the Remaining Activity (%) of the kinase was calculated according to the following function:
2) XLFit (Equation 201) software was used to fit IC50.
The above methods can be used to obtain the inhibitory IC50 and/or inhibitory constant Ki.

AXL (h) kinase, sequence (P30530 473-894): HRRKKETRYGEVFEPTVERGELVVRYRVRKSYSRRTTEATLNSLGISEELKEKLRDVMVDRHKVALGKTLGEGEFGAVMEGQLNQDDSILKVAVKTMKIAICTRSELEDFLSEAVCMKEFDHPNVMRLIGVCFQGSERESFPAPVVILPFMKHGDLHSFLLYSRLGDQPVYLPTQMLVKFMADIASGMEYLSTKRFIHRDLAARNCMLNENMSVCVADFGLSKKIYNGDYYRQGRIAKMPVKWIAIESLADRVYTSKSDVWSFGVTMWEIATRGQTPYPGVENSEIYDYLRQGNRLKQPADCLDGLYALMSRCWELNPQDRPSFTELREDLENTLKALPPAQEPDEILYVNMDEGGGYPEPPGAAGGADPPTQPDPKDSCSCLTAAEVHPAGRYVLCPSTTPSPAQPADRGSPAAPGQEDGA

Row | SMILES | IC50 (Ba/F3 AXL cells) | Gene expression CYP3A4 Fold of induction (CYP3A4 [1]) | Enzymatic activity CYP3A4 Fold of induction (CYP3A4 [2]) | Inhibitory rate (%) 3A4/5 (CYP3A4/5) | IC50 (AXL (h) kinase)
1 | CC(C)C(=O)N1CCC(c2cc(-c3ccc(NC(=O)c4c5n(n(-c6ccccc6)c4=O)CCOC5)cc3)c3c(N)ncnn23)CC1 [example 3, N-(4-(4-amino-7-(1-isobutyrylpiperidin-4-yl)pyrrolo[2,1-f][1,2,4]triazin-5-yl)phenyl)-2-oxo-1-phenyl-2,4,6,7-tetrahydro-1H-pyrazolo[5,1-c][1,4]oxazine-3-carboxamide] | < 5 nM | 4.40 | 0.801 | No inhibition | 5 to 50 nM
2 | Nc1ncnn2c1c(-c1ccc(NC(=O)c3c4n(n(-c5ccccc5)c3=O)CCOC4)cc1)cc2[C@H]1CC[C@H](O)CC1 [example 7, N-(4-(4-amino-7-((1r,4r)-4-hydroxycyclohexyl)pyrrolo[2,1-f][1,2,4]triazin-5-yl)phenyl)-2-oxo-1-phenyl-2,4,6,7-tetrahydro-1H-pyrazolo[5,1-c][1,4]oxazine-3-carboxamide] | – | – | – | No inhibition | < 5 nM
3 | Nc1ncnn2c(C3CCN(C(=O)C4CC4)CC3)cc(-c3ccc(NC(=O)c4c5n(n(-c6ccccn6)c4=O)CCCC5)cc3F)c12 [example 10, N-(4-(4-amino-7-(1-(cyclopropanecarbonyl)piperidin-4-yl)pyrrolo[2,1-f][1,2,4]triazin-5-yl)-3-fluorophenyl)-2-oxo-1-(pyridin-2-yl)-1,2,4,5,6,7-hexahydropyrazolo[1,5-a]pyridine-3-carboxamide] | < 5 nM | 24.7 | 0.779 | No inhibition | –
4 | CC(C)C(=O)N1CCC(c2cc(-c3ccc(NC(=O)c4c5n(n(-c6ccccn6)c4=O)CCCC5)cc3)c3c(N)ncnn23)CC1 [example 18, N-(4-(4-amino-7-(1-isobutyrylpiperidin-4-yl)pyrrolo[2,1-f][1,2,4]triazin-5-yl)phenyl)-2-oxo-1-(pyridin-2-yl)-1,2,4,5,6,7-hexahydropyrazolo[1,5-a]pyridine-3-carboxamide] | 5 to 50 nM | – | – | – | 5 to 50 nM
5 | CC(C)C(=O)N1CCC(c2cc(-c3ccc(NC(=O)c4c5n(n(-c6ccccc6)c4=O)CCCC5)cc3)c3c(N)ncnn23)CC1 [example 19, N-(4-(4-amino-7-(1-isobutyrylpiperidin-4-yl)pyrrolo[2,1-f][1,2,4]triazin-5-yl)phenyl)-2-oxo-1-phenyl-1,2,4,5,6,7-hexahydropyrazolo[1,5-a]pyridine-3-carboxamide] | < 5 nM | 284 | 1.5 | – | 5 to 50 nM
6 | Nc1ncnn2c1c(-c1ccc(NC(=O)c3c4n(n(-c5ccccn5)c3=O)CCCC4)cc1)cc2[C@H]1CC[C@H](O)CC1 [example 20, N-(4-(4-amino-7-((1r,4r)-4-hydroxycyclohexyl)pyrrole[2,1-f][1,2,4]triazin-5-yl)phenyl)-2-oxo-1-(pyridin-2-yl)-1,2,4,5,6,7-hexahydropyrazol[1,5-a]pyridine-3-carboxamide] | 5 to 50 nM | – | – | No inhibition | –
7 | CC(C)(F)C(=O)N1CCC(c2cc(-c3ccc(NC(=O)c4c5n(n(-c6ccccn6)c4=O)CCCC5)cc3)c3c(N)ncnn23)CC1 [example 25, N-(4-(4-amino-7-(1-(2-fluoro-2-methylpropanoyl)piperidin-4-yl)pyrrolo[2,1-f][1,2,4]triazin-5-yl)phenyl)-2-oxo-1-(pyridin-2-yl)-1,2,4,5,6,7-hexahydropyrazolo[1,5-a]pyridine-3-carboxamide] | < 5 nM | – | – | – | 5 to 50 nM
8 | CC(C)(F)C(=O)N1CCC(c2cc(-c3ccc(NC(=O)c4c5n(n(-c6ccccn6)c4=O)CCCC5)cc3F)c3c(N)ncnn23)CC1 [example 26, N-(4-(4-amino-7-(1-(2-fluoro-2-methylpropanoyl)piperidin-4-yl)pyrrolo[2,1-f][1,2,4]triazin-5-yl)-3-fluorophenyl)-2-oxo-1-(pyridin-2-yl)-1,2,4,5,6,7-hexahydropyrazolo[1,5-a]pyridine-3-carboxamide] | < 5 nM | – | – | – | 5 to 50 nM
9 | CC(C)(F)C(=O)N1CCC(c2cc(-c3ccc(NC(=O)c4c5n(n(-c6ccccn6)c4=O)CCOC5)cc3F)c3c(N)ncnn23)CC1 [example 27, N-(4-(4-amino-7-(1-(2-fluoro-2-methylpropanoyl)piperidin-4-yl)pyrrolo[2,1-f][1,2,4]triazin-5-yl)-3-fluorophenyl)-2-oxo-1-(pyridin-2-yl)-2,4,6,7-tetrahydro-1H-pyrazolo[5,1-c][1,4]oxazine-3-carboxamide] | 5 to 50 nM | – | – | – | 50 to 100 nM
10 | CC(C)(O)C(=O)N1CCC(c2cc(-c3ccc(NC(=O)c4c5n(n(-c6ccccn6)c4=O)CCCC5)cc3F)c3c(N)ncnn23)CC1 [example 29, N-(4-(4-amino-7-(1-(2-hydroxy-2-methylpropanoyl)piperidin-4-yl)pyrrolo[2,1-f][1,2,4]triazin-5-yl)-3-fluorophenyl)-2-oxo-1-(pyridin-2-yl)-1,2,4,5,6,7-hexahydropyrazolo[1,5-a]pyridine-3-carboxamide] | < 5 nM | 6.37 | 1.06 | – | 5 to 50 nM
11 | Nc1ncnn2c(C3CCN(C(=O)C4CC4)CC3)cc(-c3ccc(NC(=O)c4c5n(n(-c6ccccn6)c4=O)CCCC5)cc3)c12 [example 36, N-(4-(4-amino-7-(1-(cyclopropanecarbonyl)piperidin-4-yl)pyrrolo[2,1-f][1,2,4]triazin-5-yl)phenyl)-2-oxo-1-(pyridin-2-yl)-1,2,4,5,6,7-hexahydropyrazolo[1,5-a]pyridine-3-carboxamide] | < 5 nM | – | – | No inhibition | 5 to 50 nM
12 | CC(C)(C)C(=O)N1CCC(c2cc(-c3ccc(NC(=O)c4c5n(n(-c6ccccn6)c4=O)CCOC5)cc3F)c3c(N)ncnn23)CC1 [example 37] | < 5 nM | – | – | – | 5 to 50 nM
13 | Cn1cc(-n2c(=O)c(C(=O)Nc3ccc(-c4cc(C5CCN(C(=O)C6CC6)CC5)n5ncnc(N)c45)cc3)c3n2CCCC3)cn1 [example 47] | < 5 nM | – | – | – | 5 to 50 nM
14 | Nc1ncnn2c(C3CCN(C(=O)C4CC4)CC3)cc(-c3ccc(NC(=O)c4c5n(n(-c6cccnc6)c4=O)CCCC5)cc3)c12 [example 49] | 5 to 50 nM | – | – | – | 5 to 50 nM
